Reference: the OPERA property sets (Mansouri et al. 2018)
Peptide text beside a SMILES is read from it.

Structure (SMILES) | logP
CN(C)C(=O)Nc1ccc(C2CCCCC2)cc1 | 3.83
O=C(O)c1ccoc1 | 1.03
C[C@H](N)[C@H](O)c1cccc(O)c1 | -0.27
COc1ccc(CN(CCN(C)C)c2ccccn2)cc1 | 3.27
CN(N=O)C(=O)NC1C(O)OC(CO)C(O)C1O (stereo not drawn) | -1.45
O=C(NCc1ccccc1)c1ccco1 | 1.81
CC(C)(C)C(O)C(Oc1ccc(-c2ccccc2)cc1)n1cncn1 (stereo not drawn) | 4.16
CC(C)(C)C1CCN(N=O)CC1 | 2.54
C=C(F)F | 1.24
CC(=O)OCC(=O)[C@@]1(O)[C@@H](C)C[C@H]2[C@@H]3CCC4=CC(=O)C=C[C@]4(C)[C@@]3(F)[C@@H](O)C[C@@]21C | 2.77
NCc1ccccn1 | -0.21
Cc1c(Cl)cc(-c2ccc(=O)[nH]n2)cc1Cl | 3.2
CC(=O)Nc1cccc(OCC(=O)O)c1 | 0.48
O=CNc1ccc(F)cc1 | 1.27
CCOC(=O)C(=O)c1cccs1 | 1.77
CC[C@H](C)[C@H](NC(=O)[C@@H](NC(C)=O)[C@@H](C)O)C(N)=O (Ac-Thr-Ile-NH2) | -0.86
Cc1onc(-c2c(Cl)cccc2Cl)c1C(=O)N[C@@H]1C(=O)N2[C@@H]1SC(C)(C)[C@@H]2C(=O)O | 2.91
ClCc1cccc(CCl)c1 | 2.72
CCOCC1CO1 (stereo not drawn) | 0.36
CC(=O)Nc1ccc2cccnc2c1 | 1.55
COC(=O)C(=O)OC | -0.17
CCc1cccc(CC)c1N(COC)C(=O)CCl | 3.52
Nc1ccc(S(=O)(=O)Nc2ccc(Cl)cc2)cc1 | 2.71
CN1C(=O)CN=C(c2ccc(Cl)cc2)c2cc(F)ccc21 | 3.1

Structure (SMILES) | logP
CCC(C)c1cccc(C(C)C)c1O (stereo not drawn) | 3.85
COc1cc(NS(=O)(=O)c2ccc(N)cc2)nc(C)n1 | 0.61
O=C(O)Cc1cccc(C(F)(F)F)c1 | 2.62
CN(C)N=Nc1ccccc1 | 2.59
CC[C@H](C)[C@H](N)C(=O)O | -1.72
O=C(O)c1ccc2oc3ccccc3c(=O)c2c1 | 3.12
CC1=CC(=O)C=C(C)C1=O | 1.22
COP(=S)(OC)Oc1nc(Cl)c(Cl)cc1Cl | 4.31
CNC(=O)Oc1ccccc1I | 1.94
COc1cccc(Cl)c1 | 2.98
Nc1ccc([N+](=O)[O-])cc1N | 0.88
O=C(CCNNC(=O)c1ccncc1)NCc1ccccc1 | 0.87
CCOP(=S)(OCC)SCSC(C)(C)C | 4.48
NC(=O)C1CCCN1C(=O)C(Cc1cn(C(=O)OC2CCCCC2)cn1)NC(=O)C1CCC(=O)N1 (stereo not drawn) | 0.6
Nc1ccc(S(=O)(=O)Nc2nccs2)cc1 | 0.05
OCCc1ccncc1 | 0.1
CCCCCCc1ccc(C(=O)OCCN(C)C)cc1 | 5.2
CC1CCC(NC(=O)N(CCCl)N=O)CC1 (stereo not drawn) | 3.3
CCc1cccc(S(I)=C(N(C)C)N(C)C)c1 (stereo not drawn) | 0.34
COCCO | -0.77
Nc1cc(C(F)(F)F)ccc1Cl | 3.06
c1cnc2ccc3ncccc3c2c1 | 2.05
CN(C)C(N(C)C)=S(I)c1cc(Cl)c(Cl)c(Cl)c1 (stereo not drawn) | 0.74
O=C(O)c1cc(Cl)ccc1O | 3.09

Structure (SMILES) | logP
O=C(C=Cc1ccccc1)Nc1ccccc1 | 3.61
Cc1ccc(C)cc1 | 3.15
CC(C)C(Cl)C(=O)NC(N)=O (stereo not drawn) | 1
CCCCOc1ccc(CC(=O)NO)cc1 | 2.08
CCNc1nc(NC(C)C(C)C)nc(SC)n1 (stereo not drawn) | 3.9
O=C(NP(=O)(N1CC1)N1CC1)c1ccc(Cl)cc1 | 0.97
COC(=O)Cn1ccnc1[N+](=O)[O-] | -0.09
CC1=Nc2ccc(Cl)cc2S(=O)(=O)N1 | 1.2
NCCCc1ccncc1 | 0.4
COC(=O)CC(C)C | 1.82
COC(=O)[C@H]1[C@H]2C[C@H]3c4[nH]c5ccccc5c4CCN3C[C@H]2CC[C@@H]1O | 2.54
CN(C)C(N(C)C)=S(I)c1ccc(Cl)cc1Cl (stereo not drawn) | 0.47
CON(C)C(=O)Nc1ccccc1 | 1.29
ClCc1ccc(Cl)cc1Cl | 3.82
CNC(=O)N(C)c1ccccc1 | 1.02
Cc1cc(Cl)ccc1O | 2.78
NC(=S)c1cccnc1 | 0.67
CNC(=O)Oc1ccc(C(C)=O)cc1 | 1.01
CC(=O)N[C@@H](Cc1ccc(O)cc1)C(=O)N[C@@H](Cc1ccccc1)C(N)=O (Ac-Tyr-Phe-NH2) | 0.54
CCc1ccc2c(c1)C(=O)c1ccc(NC(C)=O)cc1S2(=O)=O | 3.44
Cc1ccc(NC(=O)N(C)C)cc1 | 1.33
O=C(c1ccccc1)n1c(=O)[nH]cc(F)c1=O | 0.8
COc1ccc(-c2nc3cnccc3o2)c(OC)c1 | 2.42
O=S(=O)(Oc1ccccc1)c1ccccc1 | 3.06

Structure (SMILES) | logP
O=C(O)c1cc(O)c(O)c(O)c1 | 0.7
O=C(O)C1c2ccccc2Sc2ccccc21 | 2.57
CCC(=O)c1ccccc1 | 2.19
Cc1c(Cl)ccc(OC(C)C(O)=Nc2ccccc2)c1Cl (stereo not drawn) | 4.8
CCCC[N+](=O)[O-] | 1.47
Cc1n[nH]c(C(=O)Nc2ccccc2)c1[N+](=O)[O-] | 1.81
Clc1ccc(Cl)nc1 | 2.4
CC(Cl)(Cl)Cl | 2.49
COc1ccc(Br)cc1-c1nc(N)nc(N)n1 | 1.53
CCCCC1CCCc2ncc(C(=O)OC)c(=O)n21 (stereo not drawn) | 1.77
c1ccc(-c2ccc(NCCN3CCOCC3)nn2)cc1 | 1.85
CCCCOCCOCCSC#N | 1.68
NCCCNC(=O)c1ccccc1 | 0.3
NNC(=O)c1ccncc1 | -0.7
O=C(O)c1cc([N+](=O)[O-])ccc1O | 2.34
COC(=O)c1ccc(N=NN(C)C)cc1 | 3.22
CC(=O)OCC(=O)[C@@]1(O)[C@H](OC(C)=O)C[C@H]2[C@@H]3CCC4=CC(=O)C=C[C@]4(C)[C@@]3(F)[C@@H](O)C[C@@]21C | 1.92
O=P(O)(O)c1ccccc1 | 0.54
CCCOC/C(=N\c1ccc(Cl)cc1C(F)(F)F)n1ccnc1 | 1.4
CNCc1ccccc1 | 1.52
O=C(O)Cc1ccccc1Nc1cccc(Cl)c1Cl | 4.86
CCNNC(=O)COc1ccccc1 | 1
CC(=O)c1ccc(N(C)C)cc1 | 2.1
O=C(Nc1ccc(Cl)cc1)c1cccnc1 | 2.52

Structure (SMILES) | logP
ClC1CC(Cl)C(Cl)C(Cl)C1Cl (stereo not drawn) | 3.53
COCC(O)Cn1cnc([N+](=O)[O-])n1 (stereo not drawn) | -0.49
CCOP(=S)(Oc1ccc(C#N)cc1)c1ccccc1 (stereo not drawn) | 4.29
Nc1ccc2nccnc2c1 | 0.9
CCCCCCCCCC(=O)N1CCCC1=O | 4.33
COc1cccc2c1C(=O)c1c(O)c3c(c(O)c1C2=O)CC(O)(C(C)O)CC3OC1CC(N2CCOCC2)C(O)C(C)O1 (stereo not drawn) | 2.03
O=NN(CCCl)C(=O)NCCCl | 1.53
COc1cc(C(=O)NN)ccn1 | -0.1
CCOc1cccc(Cl)n1 | 2.55
Brc1ccc(-c2ccc(Br)cc2)cc1 | 5.72
O=C(N/N=C/c1cc[nH]c1)Nc1ccccc1 | 2.96
Cc1ccc(O)c(-n2nc3ccccc3n2)c1 | 4.31
FC(F)(F)c1nc2c(Cl)c(Cl)ccc2[nH]1 | 3.49
CCCCc1cccc(OCC(=O)O)c1 | 3.18
CCOC(=O)C(=Cc1cccc(F)c1)C(C)=O | 2.46
O=C1NC(=O)[C@@]2(CCOc3ccc(F)cc32)N1 | 0.78
CC1(C)C=Cc2ccccc2O1 | 3.31
COc1cccc(OC(=O)c2ccc(N)cc2O)c1 | 3.25
NC(=O)OCc1ccccc1 | 1.2
COc1ccccc1OC(=O)c1ccc(N)cc1O | 2.88
O=S1OCC2C(CO1)C1(Cl)C(Cl)=C(Cl)C2(Cl)C1(Cl)Cl (stereo not drawn) | 3.83
Nc1cccc(O)c1 | 0.21
CNC(=O)Oc1cc(C)c(C)cc1C | 2.52
COc1cc(N)c(Cl)cc1C(=O)NC1CCN(Cc2ccccc2)CC1 | 3.58

Structure (SMILES) | logP
CN(C)C | 0.16
c1ccc(N=Nc2ccccc2)cc1 | 3.82
CCCC(=O)O[C@]1(C(=O)CCl)[C@@H](C)C[C@H]2[C@@H]3CCC4=CC(=O)C=C[C@]4(C)[C@@]3(F)C(=O)C[C@@]21C | 3.76
CN(C)Cc1ccccc1 | 1.98
NNC(=O)c1ccnc(Br)c1 | 0.25
O=c1ccoc2cc(O)ccc12 | 1.44
OCCN1CCCCC1 | 0.96
CC(C)N(CCC(C(N)=O)c1ccc(-c2ccccc2)cc1)C(C)C (stereo not drawn) | 3.66
OCCNCCO | -1.43
Cc1cc2ccccc2[nH]1 | 2.53
CC(=O)C=Cc1ccccc1 | 2.07
Cc1cc(N)nc(C)n1 | 0.39
C=CCNC(=O)NCC=C | 0.64
Oc1ccc(Oc2ccccc2)cc1 | 3.35
S=C=NCCc1ccccc1 | 3.47
Cc1ncc[nH]1 | 0.24
CCCCCCOC(=O)n1cnc(C)c1CSCCNC(=NC#N)NC | 3.1
CCCCC(=O)Nc1ccccc1 | 2.61
CN1CCN(C)CC1 | -0.4
C=CCc1ccccc1OCC(O)CNC(C)C (stereo not drawn) | 3.1
Nc1nc(N)nc(-c2ccccc2Cl)n1 | 1.19
COC(=O)Cc1ccsc1 | 1.46
C=CCN(C(C)=O)C(C)C | 1.14
C[C@@H](O)c1ccccc1 | 1.42

Structure (SMILES) | logP
NCCCc1ccccc1 | 1.83
Cc1cc(C)cc(O)c1 | 2.35
CC(=O)N(C)N=Nc1ccc(C(N)=O)cc1 | 1.37
O=C1NC(=O)c2ccccc21 | 1.15
CCOP(=S)(NC(C)C)Oc1ccccc1C(=O)OC(C)C (stereo not drawn) | 4.12
CNc1nc2ccccc2o1 | 1.82
CC12CCC(O)CC1CCC1C2CCC2(C)C(C3=CC(=O)OC3)C(O)CC12O (stereo not drawn) | 1.6
COc1cccc(C=O)c1O | 1.37
CC(C)=O | -0.24
Cn1ccc(=O)n(C)c1=O | -0.54
FC(F)F | 0.64
NC(=S)NN=Cc1ccccc1 | 1.86
CNc1ccccc1C | 2.16
Cc1ccc([N+](=O)[O-])cc1N | 1.87
O=C(NN1CCCCCC1)NS(=O)(=O)c1ccc(Cl)cc1 | 1.64
CC(=O)Sc1ccccc1 | 2.23
Nc1nc2[nH]cnc2c(=O)[nH]1 | -0.91
CCC(=O)OC1(C(C)=O)C(C)CC2C3CCC4=CC(=O)C=CC4(C)C3(F)C(O)CC21C (stereo not drawn) | 3.09
C1=Cc2ccccc2C1 | 2.92
